The source of these data is EP0558104B1, “1,5-Benzodiazepine derivatives and their use in medicine” (GLAXO WELLCOME S.p.A., priority 1992, dated 1993).

Read-outs that look alike come from different tables or passages of the source.

The target of data set [1] is T1, CCK-A receptors (Cavia porcellus, UniProt Q63931).
T1 construct: guinea pig isolated ileum longitudinal muscle myenteric plexus preparation; from tissue; host or cells: guinea pig isolated ileum longitudinal muscle-myenteric plexus
T1 sequence (Q63931 1-430): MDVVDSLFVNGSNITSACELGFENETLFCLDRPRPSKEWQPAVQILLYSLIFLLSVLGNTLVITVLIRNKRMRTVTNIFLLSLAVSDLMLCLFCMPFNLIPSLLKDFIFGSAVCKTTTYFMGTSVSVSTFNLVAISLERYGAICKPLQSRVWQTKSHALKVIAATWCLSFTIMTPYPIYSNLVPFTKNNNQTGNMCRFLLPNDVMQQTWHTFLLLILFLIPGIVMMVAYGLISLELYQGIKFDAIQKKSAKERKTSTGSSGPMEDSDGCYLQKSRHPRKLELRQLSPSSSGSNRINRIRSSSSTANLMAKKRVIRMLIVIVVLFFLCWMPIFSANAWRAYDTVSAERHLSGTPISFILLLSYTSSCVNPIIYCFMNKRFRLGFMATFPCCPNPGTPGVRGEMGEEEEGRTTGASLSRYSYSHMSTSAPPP
As to the kind of experiment: CCK-A antagonist activity, guinea pig isolated ileum longitudinal muscle myenteric plexus preparation. It counts as cell-based. As to the method: The preparation and use of guinea-pig isolated ileum longitudinal muscle-myenteric plexus has been described by K-H Buchheit et al in Nauyn-Schmeideberg's Arch. Pharmacol, (1985), 329, p3641 and by V.L. Lucaites et al (1991) in J. Pharmacol. Exp. Ther., 256, 695-703.
The CCK-A antagonist and CCK-B antagonist activites of compounds of the invention were determined using the guinea pig isolated ileum longitudinal muscle myenteric plexus preparation. The compounds were tested using the procedure G Dal Forno et al J. Pharmacol. Exp & Ther. 261 - 1056-1063 1992 and the pKb value for each compound was determined.

Data set [2] deals with mice. Briefly: Anxiolytic activity in mice (black-white box test). It counts as in vivo. The source says:
(§1) For example in mice in the black-white box test and in the rat social interaction model.

The test system of data set [3] is mice. As to the kind of experiment: Tolerability after oral administration to mice. Format: in vivo. The following applies: given orally to mice at doses at which the compound exhibits anxiolytic activity. The source says:
(§2) The compounds of the invention are essentially non-toxic and therapeutically useful doses.

Data set [4] concerns rat. As to the kind of experiment: Anxiolytic activity in rats (rat social interaction model). Format: in vivo.
Source text: as §1

Data set [5] deals with rats. As to the kind of experiment: Tolerability after oral administration to rats. Format: in vivo. Particulars: given orally to rats at doses at which the compound exhibits anxiolytic activity.
Source text: as §2

Data set [6] concerns the target CCK-B receptor (Cavia porcellus, UniProt H0VZC5). As to the kind of experiment: CCK receptor binding, guinea pig cortex assay. Set-up: CCK-B receptor (guinea pig cortex assay); from tissue; host or cells: guinea pig cortex. As for the experimental part:
The greater affinity of the compounds of the invention for the CCK-B receptor over the CCK-A receptor has also been established using the CCK receptor binding assays described by G Dal Fornos et al., J. Pharmcol. Exp & Ther. 261, 1056-1063, 1992.
The binding affinity of the compounds of the invention for the CCK-A receptor (Pancreas Assay) and CCK-B receptor (guinea pig cortex assay) was determined using the procedure of G Dal Forno et al J. Pharmacol. Exp & Ther. 261 - 1056-1063. The pKi values determined with respresentative compounds of invention were as follows: […]

Where [7] appears, read: guinea pig isolated ileum longitudinal muscle myenteric plexus, inhibition of contractile activity of CCK-8, read-out: pKb CCK-A (converted).

Chain of CCK-B receptor (H0VZC5 entry or part of it): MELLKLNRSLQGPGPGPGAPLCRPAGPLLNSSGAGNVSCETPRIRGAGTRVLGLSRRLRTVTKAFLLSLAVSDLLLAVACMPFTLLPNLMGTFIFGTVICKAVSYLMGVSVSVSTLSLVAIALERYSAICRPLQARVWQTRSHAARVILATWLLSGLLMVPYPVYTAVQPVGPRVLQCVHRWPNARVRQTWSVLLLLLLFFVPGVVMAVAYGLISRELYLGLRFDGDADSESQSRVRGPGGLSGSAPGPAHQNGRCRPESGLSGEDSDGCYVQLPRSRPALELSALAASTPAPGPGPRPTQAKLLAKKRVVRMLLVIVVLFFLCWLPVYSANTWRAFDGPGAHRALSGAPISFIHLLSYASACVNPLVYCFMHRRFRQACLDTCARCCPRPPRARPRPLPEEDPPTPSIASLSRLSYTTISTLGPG

For `O=C(Nc1ccccc1)NC1C(=O)N(CC23CC4CC(CC(C4)C2)C3)c2ccccc2N(c2ccccc2)C1=O` (single isomer, unassigned; (+)) [Example 45, (+)-N-[1-(Adamantanmethyl)-2,4-dioxo-5-phenyl-2,3,4,5-tetrahydro-1H-1,5benzodiazepin-3-yl]-N'-phenylurea], the Kb in data set [1] was 1260 nM. Further, the anxiolytic activity entry in data set [2] and in data set [4] was “exhibits anxiolytic activity” each time. Besides, the untoward effects entry in data set [3] and in data set [5] was “no untoward effects” in each case.

For orientation: Ki means the equilibrium dissociation constant of an inhibitor or competing ligand from its target. High values mean lower affinity, low ones higher affinity. Take `CC(C)CCN1C(=O)C(NC(=O)Nc2cccc(N(C)C)c2)C(=O)N(c2ccccc2F)c2ccccc21` (centres unmarked) [Example 4, N-[2,4-dioxo-5-(2-fluorophenyl)-1-(3-methylbut-1-yl)-2,3,4,5-tetrahydro-1H-1,5-benzodiazepin-3-yl]-N'-(3-dimethylamino)phenylurea]: the Kb in data set [1] (setting [7]) is 3160 nM. In data set [6], this compound gave a Ki of 0.251 nM.

In the case of `CC(C)(C)C(O)CN1C(=O)C(NC(=O)Nc2ccccc2)C(=O)N(c2ccccc2F)c2ccccc21` (centres unmarked) [Example 7A, N-[1-(3,3-Dimethyl-2-hydroxybut-1-yl)-2,4-dioxo-5-(2-fluorophenyl)-2,3,4,5-tetrahydro-1H-1,5-benzodiazepin-3-yl]-N'-phenylurea], the affinity in data set [6] corresponds to a Ki of 1.95 nM.

The compound `CC(C)CCN1C(=O)C(NC(=O)Nc2ccccc2)C(=O)N(c2ccccc2)c2cc(Cl)ccc21` (centres unmarked) [Example 9, N-[7-Chloro-2,4-dioxo-1-(3-methylbut-1-yl)-5-phenyl-2,3,4,5-tetrahydro-1H-1,5-benzodiazepin-3-yl]-N'-phenylurea] gave an inhibition constant (Ki) in data set [6] of 4.9 nM.

With `CC(C)CCN1C(=O)C(NC(=O)Nc2ccccc2)C(=O)N(c2ccccc2)c2cc(Cl)c(Cl)cc21` (centres unmarked) [Example 11, N-[7,8-dichloro-2,4-Dioxo-1-(3-methylbut-1-yl)-5-phenyl-2,3,4,5-tetrahydro-1H-1,5-benzodiazepin-3-yl]-N'-phenylurea], in data set [6], the Ki is 9.77 nM.

The compound `O=C(Nc1ccccc1)NC1C(=O)N(CC23CC4CC(CC(C4)C2)C3)c2ccccc2N(c2ccccc2)C1=O` (centres unmarked) [Example 14, N-[1-(1-Adamantyl)methyl-2,4-dioxo-5-phenyl-2,3,4,5-tetrahydro-1H-1,5-benzodiazepin-3-yl]-N'-phenylurea] showed a Kb in data set [1] of 158 nM.

Consider `CC(C)(C)CCN1C(=O)C(NC(=O)Nc2ccccc2)C(=O)N(c2ccccc2)c2ccccc21` (centres unmarked) [Example 16, N-[1-(3,3-Dimethylbutyl)-2,4-dioxo-5-phenyl-2,3,4,5-tetrahydro-1H-1,5-benzodiazepin-3-yl]-N'-phenylurea], for which the affinity in data set [6], expressed as Ki, was 0.676 nM.

In the case of `CC(C)CCN1C(=O)C(NC(=O)Nc2ccccc2)C(=O)N(c2ccccc2)c2ccccc21` (centres unmarked) [Example 25, N-[2,4-Dioxo-5-phenyl-1-(3-methylbut-1-yl)-2,3,4,5-tetrahydro-1H-1,5-benzodiazepin-3-yl]-N'-phenylurea], the Kb in data set [1] (setting [7]) is above 1000 nM.

`CN(C)c1ccc(NC(=O)NC2C(=O)N(CCC3CCCC3)c3ccccc3N(c3ccccc3F)C2=O)cc1` (centres unmarked) [Example 30, N-[1-(2-cyclopentyl-ethyl)-2,4-dioxo-5-(2-fluorophenyl)-2,3,4,5-tetrahydro-1H-1,5-benzodiazepin-3-yl]-N'-[4-(dimethylamino)phenyl]urea]: the affinity in data set [6], expressed as Ki, was 0.724 nM.

With `O=C(Nc1ccccc1)NC1C(=O)N(CC2CC3C=CC2C3)c2ccccc2N(c2ccccc2)C1=O` (centres unmarked) [Example 31, N-[1-(Bicyclo [2.2.1]-5-heptene-2-ylmethyl)-2,4-dioxo-5-phenyl-2,3,4,5-tetrahydro-1H-1,5-benzodiazepin-3yl]-N'-phenylurea], the Ki in data set [6] is 1.51 nM.

For the compound `O=C(Nc1cccc([N+](=O)[O-])c1)NC1C(=O)N(CC23CC4CC(CC(C4)C2)C3)c2ccccc2N(c2ccccc2)C1=O` (centres unmarked) [Example 39, N-[1-(1-Adamantylmethyl)-2,4-dioxo-5-phenyl-2,3,4,5-tetrahydro-1H-1,5-benzodiazepin-3-yl]-N'-(3-nitrophenyl)urea], in data set [6], the Ki was 1.91 nM.

Turning to `CCOC(=O)c1cccc(NC(=O)NC2C(=O)N(CC34CC5CC(CC(C5)C3)C4)c3ccccc3N(c3ccccc3)C2=O)c1` (centres unmarked) [Example 41, N-[1-(1-Adamantylmethyl)-2,4-dioxo-5-phenyl-2,3,4,5-tetrahydro-1H-1,5-benzodiazepin-3-yl]-N'-(3-ethoxycarbonylphenyl)urea], the inhibition constant Ki in data set [6] was 2.95 nM.
